Experimental data taken from patent US20230413810A1, “SANITISING FORMULATION” (Lumendo AG, priority 2020, published 2023).

Assays:
Assay type in all cases: cell-based
[1] = tested on: Staphylococcus aureus (ATCC 6538); assay: Direct contact test on glass plates, Log10 reduction of S. aureus (CFU/mL)
P. aeruginosa = assay: Direct contact test on glass plates, Log10 reduction of P. aeruginosa
[2] = tested on: Staphylococcus aureus (ATCC 6538); assay: Direct contact test on glass plates, Log10 reduction of S. aureus (CFU/mL); remark: listed apart in the source
Protocol: The anti-microbial-retaining hydrogel formulation was prepared by the addition of Tetronic® 1107 tetramethacrylate (12.64% w/w), prepared according to Example 6, to glycerol (29.48% w/w). Then triethanolamine (0.84% w/w) was added in water (7.58% w/w), diphenyliodonium hexafluorophosphate (0.067% w/w) and 4-(diphenylphosphino)benzoic acid (0.166% w/w) were added in ethanol (8.16% w/w) and a specified amount of anti-microbial agent was added in PBS buffer ×1 (40.01% w/w). The mixture was placed into a thermoshaker and heated and shaken (50° C., 1200 rpm) for 20 minutes. Next, ethyl (2,4,6-trimethylbenzoyl) phenylphosphinate (0.31% w/w) and eosin Y (0.00125% w/w) were added to the mixture in ethanol (4.01% w/w) and the solution was mixed at room temperature for 20 seconds.
A 15 mL falcon tube containing 5 mL of BHI medium was inoculated with Staphylococcus aureus (ATCC 6538) and incubated overnight at 37° C. on a shaker (140 rpm). On the next day, a 15 mL falcon tube containing 5 mL BHI medium was inoculated with 100 μL of the overnight culture and incubated at 37° C. for 3.5 hours at 140 rpm.
Glass plates (18 mm×18 mm) were added with anti-microbial-retaining hydrogel formulation (50 μL) and covered with another glass plate (18 mm×18 mm) in the well of a 6-well plate. Samples were polymerized by the light from the laminar flow hood for 30 minutes. […]
S. aureus cultures were diluted to an OD600 (optical density at λ=600 nm) of 0.2 and 50 μL added to the glass plates (18 mm×18 mm) covered with the anti-microbial retaining hydrogel formulation of the present invention. Samples were covered with a glass plate (18 mm×18 mm) and incubated at 37° C. for 60 minutes. Bacteria were recovered by addition of 1 mL of BHI medium to each well and manually shaking the plate for 30 seconds. From each solution a four times ten-fold dilution series was prepared, resulting in 5 concentrations (each time adding 20 μL of the previous solution to 180 μL of PBS). A BHI agar plate was divided into 5 sectors and from each dilution, three drops of 10 μL were added to one sector. The plates were incubated overnight at 37° C. From the dilution containing 3-30 colonies, the CFU/mL (colony forming units per mL) were calculated and recorded.
Samples were prepared as triplicates. As negative controls, glass plates with no hydrogel and with hydrogel but no anti-microbial agent were prepared. As a control group, glass plates were added with stock solutions of the appropriate disinfectant in PBS (50 μL) at the same concentration as in the hydrogel.
For the washing of samples, the polymerized hydrogel sample was washed with 1 mL PBS solution, after which the PBS solution was removed. The sample was let air dry for 15 minutes before bacterial was then applied as described above.

[3] = DDAC 0.1% w/w in polymerized hydrogel vs other sanitizing agents on glass surfaces, 0 washes
[4] = DDAC 0.1% w/w in polymerized hydrogel vs other sanitizing agents on glass surfaces, 5 washes with 1 mL water
[5] = unmodified anti-microbial agents 0.1% w/w in hydrogel (Sterilium with no hydrogel), 0 washes with 1 mL water
[6] = unmodified anti-microbial agents 0.1% w/w in hydrogel (Sterilium with no hydrogel), 5 washes with 1 mL water
[7] = unmodified anti-microbial agents 1.0% w/w in hydrogel (Sterilium with no hydrogel), 0 washes with 1 mL water
[8] = unmodified anti-microbial agents 1.0% w/w in hydrogel (Sterilium with no hydrogel), 5 washes with 1 mL water
[9] = modified anti-microbial agents 1% w/w in hydrogel formulation according to Example 22

CC(C)O [60% Isopropanol, Isopropanol]
Log10 reduction of S. aureus [1, 3]: >4 Log10
Log10 reduction of S. aureus [1, 4]: <1 Log10

CCCCCCCCCC[N+](C)(C)CCCCCCCCCC.[Cl-] [Didecyldimethylammonium chloride, didecyldimethylammonium chloride]
Log10 reduction of S. aureus [1, 5]: >3 Log10
Log10 reduction of S. aureus [1, 6]: >4 Log10
Log10 reduction of P. aeruginosa (P. aeruginosa; [7]): 2 Log10
Log10 reduction of P. aeruginosa (P. aeruginosa; [8]): >4 Log10

12-(N,N,N-Benzylbutylmethylammonium)dodecyl methacrylate bromide
Log10 reduction of S. aureus [2, 9]: >4 Log10
Log10 reduction of P. aeruginosa (P. aeruginosa; [9]): 1 Log10

2-(N,N,N-Dodecyldimethylammonium)ethyl methacrylate bromide
Log10 reduction of S. aureus [2, 9]: 3 Log10
Log10 reduction of P. aeruginosa (P. aeruginosa; [9]): 1 Log10

2-(N,N,N-Cetylmethylbenzylammonium)ethyl methacrylate bromide
Log10 reduction of S. aureus [2, 9]: >2 Log10
Log10 reduction of P. aeruginosa (P. aeruginosa; [9]): <1 Log10

2-(N,N,N-dodecylmethylbenzylammonium)ethyl methacrylate bromide
Log10 reduction of S. aureus [2, 9]: >4 Log10
Log10 reduction of P. aeruginosa (P. aeruginosa; [9]): 3 Log10

C=C(C)C(=O)OCC[N+](C)(C)CCOCCOc1ccc(C(C)(C)CC(C)(C)C)cc1.[Cl-] [2-(methacryloyloxy)-N,N-dimethyl-N-(2-(2-(4-(2,4,4-trimethylpentan-2-yl)phenoxy)ethoxy)ethyl)ethan-1-aminium chloride]
Log10 reduction of S. aureus [2, 9]: >4 Log10
Log10 reduction of S. aureus ([1]; 1% w/w in hydrogel, 0 washes with 1 mL water): >4 Log10
Log10 reduction of S. aureus ([1]; 1% w/w in hydrogel, 5 washes with 1 mL water): >3 Log10
Log10 reduction of S. aureus ([1]; 1% w/w in hydrogel, 20 washes with 1 mL water): 4 Log10
Log10 reduction of S. aureus ([1]; 1% w/w in hydrogel, 2 hours soaking in water): >3 Log10
Log10 reduction of P. aeruginosa (P. aeruginosa; [9]): 1 Log10

C=C(C)C(=O)OCCOCC[N+](C)(C)CCCCCCCCCCCCCCCC.[Cl-] [2-(N,N,N-Cetyldimethylammonium)ethoxyethyl methacrylate chloride]
Log10 reduction of S. aureus [2, 9]: >1 Log10
Log10 reduction of P. aeruginosa (P. aeruginosa; [9]): >1 Log10

C=C(C)C(=O)OCCOCC[n+]1ccc(CCCCCCCCCCCCC)cc1.[Cl-] [2-(4-Tridecylpyridin-1-uim)ethoxyethyl methacrylate chloride]
Log10 reduction of S. aureus [2, 9]: >4 Log10
Log10 reduction of P. aeruginosa (P. aeruginosa; [9]): 1 Log10

C=C(C)C(=O)OCCOCC[n+]1ccc(CCCCCCCCCCCCCCCCC)cc1.[Cl-] [2-(4-heptadecylpyridin-1-uim)ethoxyethyl methacrylate chloride]
Log10 reduction of S. aureus [2, 9]: >1 Log10
Log10 reduction of P. aeruginosa (P. aeruginosa; [9]): <1 Log10

CCO [70% Ethanol, Ethanol]
Log10 reduction of S. aureus [1, 3]: >4 Log10
Log10 reduction of S. aureus [1, 4]: <1 Log10

CC(C)(C)CC(C)(C)c1ccc(OCCOCC[N+](C)(C)Cc2ccccc2)cc1 [Benzethonium chloride, benzethonium chloride]
Log10 reduction of S. aureus ([2]; 0.1% w/w in hydrogel (Example 28), 20 washes with 1 mL water): 2 Log10
Log10 reduction of S. aureus ([1]; 0.1% w/w in hydrogel (Example 28), 0 washes with 1 mL water): 2 Log10
Log10 reduction of S. aureus ([1]; 0.1% w/w in hydrogel (Example 28), 5 washes with 1 mL water): 3 Log10
Log10 reduction of S. aureus ([1]; 0.1% w/w in hydrogel (Example 28), 2 hours soaking in water): 3 Log10
Log10 reduction of S. aureus [1, 5]: 2 Log10
Log10 reduction of S. aureus [1, 6]: 3 Log10

12-(N,N,N-Butyldimethylammonium)dodecyl methacrylate bromide
Log10 reduction of S. aureus [2, 9]: >1 Log10
Log10 reduction of P. aeruginosa (P. aeruginosa; [9]): 1 Log10

CC(C)(C)CC(C)(C)c1ccc(OCCOCC[N+](C)(C)Cc2ccccc2)cc1 [Anti-microbial agent on glass surface, benzethonium chloride]
Log10 reduction of S. aureus ([2]; benzethonium chloride 0.1% w/w, on glass with no hydrogel or in polymerized hydrogel, 20 washes with 1 mL water): <1 Log10
Log10 reduction of S. aureus ([1]; benzethonium chloride 0.1% w/w, on glass with no hydrogel or in polymerized hydrogel, 0 washes with 1 mL water): >4 Log10
Log10 reduction of S. aureus ([1]; benzethonium chloride 0.1% w/w, on glass with no hydrogel or in polymerized hydrogel, 5 washes with 1 mL water): <1 Log10
Log10 reduction of S. aureus ([1]; benzethonium chloride 0.1% w/w, on glass with no hydrogel or in polymerized hydrogel, 10 washes with 1 mL water): <1 Log10

9-(N,N,N-Benzylbutylmethylammonium)nonyl methacrylate bromide
Log10 reduction of S. aureus [2, 9]: <1 Log10
Log10 reduction of P. aeruginosa (P. aeruginosa; [9]): 1 Log10

Benzalkonium chloride
Log10 reduction of S. aureus [1, 5]: 2 Log10
Log10 reduction of S. aureus [1, 6]: >4 Log10
Log10 reduction of P. aeruginosa (P. aeruginosa; [7]): >1 Log10
Log10 reduction of P. aeruginosa (P. aeruginosa; [8]): >4 Log10

16-(N,N,N-Benzylbutylmethylammonium)cetyl methacrylate bromide
Log10 reduction of S. aureus [2, 9]: >4 Log10
Log10 reduction of P. aeruginosa (P. aeruginosa; [9]): <1 Log10

N=C(NCCCCCCNC(=N)NC(=N)Nc1ccc(Cl)cc1)NC(=N)Nc1ccc(Cl)cc1 [Chlorohexidine]
Log10 reduction of S. aureus [1, 5]: >4 Log10
Log10 reduction of S. aureus [1, 6]: >4 Log10
Log10 reduction of P. aeruginosa (P. aeruginosa; [7]): >2 Log10
Log10 reduction of P. aeruginosa (P. aeruginosa; [8]): >4 Log10
